Results from patent US9193719B2, “1,2,4-triazol-5-ones and analogs exhibiting anti-cancer and anti-proliferative activities” (Deciphera Pharmaceuticals, LLC, priority 2013, dated 2015).

How the values were obtained:
[1] = biological target: T1, unphosphorylated c-KIT kinase (uKIT, Seq. ID no. 2) (Homo sapiens, UniProt P10721); assay: uKit kinase enzymatic assay (pyruvate kinase/lactate dehydrogenase coupled); format: biochemical; details: ATP 2000 μM, rate 3 to 4 h
T1 construct: uKit with N-terminal GST fusion used for screening
T1 sequence (P10721 with tags, fused parts or gaps): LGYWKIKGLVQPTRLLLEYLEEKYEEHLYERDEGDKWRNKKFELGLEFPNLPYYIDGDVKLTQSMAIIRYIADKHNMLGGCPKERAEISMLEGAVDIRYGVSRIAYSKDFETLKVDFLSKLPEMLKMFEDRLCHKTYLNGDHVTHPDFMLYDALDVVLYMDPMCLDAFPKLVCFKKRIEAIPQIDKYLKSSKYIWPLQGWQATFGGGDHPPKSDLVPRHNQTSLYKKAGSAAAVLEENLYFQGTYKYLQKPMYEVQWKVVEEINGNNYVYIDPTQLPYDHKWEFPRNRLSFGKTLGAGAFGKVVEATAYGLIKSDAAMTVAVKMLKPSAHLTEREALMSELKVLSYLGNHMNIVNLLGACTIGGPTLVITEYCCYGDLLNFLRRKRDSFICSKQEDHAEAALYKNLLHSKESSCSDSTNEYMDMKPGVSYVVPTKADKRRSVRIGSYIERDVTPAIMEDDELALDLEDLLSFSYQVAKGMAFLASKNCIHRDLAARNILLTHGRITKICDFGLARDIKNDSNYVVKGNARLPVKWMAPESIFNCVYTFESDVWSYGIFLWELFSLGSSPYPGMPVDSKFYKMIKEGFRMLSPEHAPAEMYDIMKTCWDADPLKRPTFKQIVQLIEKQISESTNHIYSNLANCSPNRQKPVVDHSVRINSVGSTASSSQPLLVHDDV
Protocol: uKit Kinase (Seq. ID No. 2) Assay
Activity of unphosphorylated c-KIT kinase (uKIT, Seq. ID no. 2) was determined by following the production of ADP from the KIT kinase reaction with ATP and poly E4Y as substrates through coupling with the pyruvate kinase/lactate dehydrogenase system (e.g., Schindler et al. Science (2000) 289: 1938-1942). In this assay, the oxidation of NADH (thus the decrease at A340 nm) was continuously monitored spectrophometrically. The reaction mixture (100 μl) contained unphosphorylated KIT (12 nM), polyE4Y (1 mg/mL), MgCl2 (10 mM), pyruvate kinase (4 units), lactate dehydrogenase (0.7 units), phosphoenol pyruvate (1 mM), and NADH (0.28 mM) and ATP (2000 μM) in 90 mM Tris buffer containing 0.2% octyl-glucoside and 1% DMSO, pH 7.5. The inhibition reaction was started by mixing serial diluted test compound with the above reaction mixture. The absorption at 340 nm was monitored continuously for 4 hours at 30° C. on Synergy 2 plate reader (BioTech). Reaction rates around 3 to 4 h time frame were used to calculate % inhibitions, from which IC50 values were generated.

M-NFS-60 cells = assay: M-NFS-60 cell proliferation assay (resazurin); format: cell-based; details: 67 h incubation
Protocol: M-NFS-60 cells (catalog #CRL-1838) were obtained from the American Type Culture Collection (ATCC, Manassas, Va.). Briefly, cells were grown in suspension in RPMI 1640 medium supplemented with 10% characterized fetal bovine serum (Invitrogen, Carlsbad, Calif.), 0.05 mM 2-mercaptoethanol, and 20 ng/mL mouse recombinant macrophage colony stimulating factor (M-CSF) at 37° C., 5% CO2, and 95% humidity. Cells were allowed to expand until reaching saturation at which point they were subcultured or harvested for assay use.
M-NFS-60 Cell Proliferation Assay
A serial dilution of test compound was dispensed into a 384-well black clear bottom plate (Corning, Corning, N.Y.). Two thousand five hundred cells were added per well in 50 μL complete growth medium. Plates were incubated for 67 h at 37° C., 5% CO2, and 95% humidity. At the end of the incubation period 10 μL of a 440 μM solution of resazurin (Sigma, St. Louis, Mo.) in PBS was added to each well and incubated for an additional 5 h at 37° C., 5% CO2, and 95% humidity. Plates were read on a Synergy2 reader (Biotek, Winooski, Vt.) using an excitation of 540 nm and an emission of 600 nm. IC50 values were calculated from a series of percent inhibition values determined at a range of inhibitor concentrations using software routines as implemented in the GraphPad Prism software package.

[2] = biological target: T2, unphosphorylated c-FMS kinase (uFMS, Seq. ID no. 1) (Homo sapiens, UniProt P07333); assay: uFMS kinase enzymatic assay (pyruvate kinase/lactate dehydrogenase coupled); format: biochemical; details: ATP 500 μM, rate 3 to 4 h
T2 construct: purchased Millipore
T2 sequence (P07333 538-972): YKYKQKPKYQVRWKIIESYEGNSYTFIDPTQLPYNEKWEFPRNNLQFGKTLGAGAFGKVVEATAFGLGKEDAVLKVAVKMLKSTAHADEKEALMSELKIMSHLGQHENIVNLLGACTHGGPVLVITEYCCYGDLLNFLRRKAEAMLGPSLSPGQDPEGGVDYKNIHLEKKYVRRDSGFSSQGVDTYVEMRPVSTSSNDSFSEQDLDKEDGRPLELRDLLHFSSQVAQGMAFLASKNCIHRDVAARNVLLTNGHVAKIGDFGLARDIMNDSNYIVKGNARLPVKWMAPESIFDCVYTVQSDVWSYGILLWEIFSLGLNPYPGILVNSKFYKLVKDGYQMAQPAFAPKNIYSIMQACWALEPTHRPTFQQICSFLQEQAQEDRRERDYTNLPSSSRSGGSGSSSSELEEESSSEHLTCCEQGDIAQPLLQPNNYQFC
Protocol: uFMS Kinase (Seq. ID No. 1) Assay
Activity of unphosphorylated c-FMS kinase (uFMS, Seq. ID no. 1) was determined by following the production of ADP from the FMS kinase reaction with ATP and poly E4Y as substrates through coupling with the pyruvate kinase/lactate dehydrogenase system (e.g., Schindler et al. Science (2000) 289: 1938-1942). In this assay, the oxidation of NADH (thus the decrease at A340 nm) was continuously monitored spectrophometrically. The reaction mixture (100 μL) contained FMS (purchased from Millipore) (10 nM), polyE4Y (1 mg/mL), MgCl2 (10 mM), pyruvate kinase (4 units), lactate dehydrogenase (0.7 units), phosphoenol pyruvate (1 mM), NADH (0.28 mM) and ATP (500 μM) in 90 mM Tris buffer containing 0.2% octyl-glucoside and 1% DMSO, pH 7.5. The inhibition reaction was started by mixing serial diluted test compound with the above reaction mixture. The absorption at 340 nm was monitored continuously for 4 hours at 30° C. on Synergy 2 plate reader. The reaction rate was calculated using the 3 to 4 h time frame. Percent inhibition was obtained by comparison of reaction rate with that of a control (i.e. in the absence of test compound). IC50 values were calculated from a series of percent inhibition values determined at a range of inhibitor concentrations using software routines as implemented in the GraphPad Prism software package.

[3] = biological target: T3, unphosphorylated PDGFRβ kinase (uPDGFRβ, Seq. ID No. 3) (Homo sapiens, UniProt P09619); assay: uPDGFRβ kinase enzymatic assay (pyruvate kinase/lactate dehydrogenase coupled); format: biochemical; details: ATP 500 μM, rate 1.5 to 2.5 h
T3 construct: purchased DeCode
T3 sequence (P09619 557-1106): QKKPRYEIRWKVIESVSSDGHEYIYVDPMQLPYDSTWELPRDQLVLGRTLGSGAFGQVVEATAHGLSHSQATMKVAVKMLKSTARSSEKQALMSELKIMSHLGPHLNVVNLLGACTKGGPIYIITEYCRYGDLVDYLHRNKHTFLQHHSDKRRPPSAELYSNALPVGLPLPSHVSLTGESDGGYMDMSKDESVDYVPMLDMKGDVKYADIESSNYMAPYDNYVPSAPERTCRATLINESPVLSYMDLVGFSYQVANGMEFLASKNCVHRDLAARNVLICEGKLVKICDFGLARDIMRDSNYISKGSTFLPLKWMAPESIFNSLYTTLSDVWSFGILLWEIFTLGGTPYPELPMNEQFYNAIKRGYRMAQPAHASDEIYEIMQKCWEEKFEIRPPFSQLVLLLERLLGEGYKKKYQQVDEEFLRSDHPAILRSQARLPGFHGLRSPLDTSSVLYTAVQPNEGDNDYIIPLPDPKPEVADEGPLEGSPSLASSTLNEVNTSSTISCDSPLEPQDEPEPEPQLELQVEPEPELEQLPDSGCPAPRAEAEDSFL
Protocol: Unphosphorylated PDGFRβ (uPDGFRβ) Kinase (Seq. ID No. 3) Assay
Activity of unphosphorylated PDGFRβ kinase (uPDGFRβ, Seq. ID No. 3) was determined by following the production of ADP from the kinase reaction with ATP and poly E4Y as substrates through coupling with the pyruvate kinase/lactate dehydrogenase system (e.g., Schindler et al. Science (2000) 289: 1938-1942). In this assay, the oxidation of NADH (thus the decrease at A340 nm) was continuously monitored spectrophometrically. The reaction mixture (100 μL) contained PDGFRβ (DeCode, 15.7 nM), polyE4Y (2.5 mg/mL), MgCl2 (10 mM), pyruvate kinase (4 units), lactate dehydrogenase (0.7 units), phosphoenol pyruvate (1 mM) and NADH (0.28 mM) and ATP (500 μM) in a 90 mM Tris buffer containing 0.2% octyl-glucoside and 1% DMSO, at pH 7.5. The inhibition reaction was started by mixing serial diluted test compound with the above reaction mixture. The absorption at 340 nm was monitored continuously for 4 h at 30° C. on a Polarstar Optima or Synergy 2 plate reader. The reaction rate was calculated using the 1.5 to 2.5 h time frame. Percent inhibition was obtained by comparison of reaction rate with that of a control (i.e. with no test compound). IC50 values were calculated from a series of percent inhibition values determined at a range of inhibitor concentrations using software routines as implemented in the GraphPad Prism software package.

osteoclast precursors = assay: Osteoclast tartrate-resistant acid phosphatase assay; format: cell-based; details: RANKL and M-CSF, 7-14 days, tartrate-resistant acid phosphatase activity
Protocol: Osteoclast Tartrate-Resistant Acid Phosphatase Assay
A serial dilution of test compound was dispensed into a 384-well black clear bottom plate (Nalge Nunc International, Rochester, N.Y.). Compound was diluted by the addition of DMEM media supplemented with 10% characterized fetal bovine serum (Invitrogen, Carlsbad, Calif.). Diluted compound was transferred to a 384-well black clear bottom plate. Two-thousand five hundred osteoclast precursors (Lonza, Walkersville, Md.) were added per well in growth media containing Receptor Activator of Nuclear Factor Kappa-beta ligand (RANKL) and M-CSF (R&D Systems, Minneapolis, Minn.). Plates were incubated for 7-14 days at 37 degrees Celsius, 5% CO2, and 95% humidity to allow differentiation of osteoclast precursors. At the end of the incubation period, 10 μL of supernatant from each well was transferred to a clear 384-well plate. Tartrate-resistant acid phosphatase activity in the supernatant samples was determined using an acid phosphatase assay kit (Sigma, St. Louis, Mo.). Absorbance was measured at 550 nm using a plate reader. Data was analyzed using Prism software (Graphpad, San Diego, Calif.) to calculate IC50 values.

SMILES	IC50 [1] [nM]	IC50 (M-NFS-60 cells) [nM]	IC50 [2] [nM]	IC50 [3] [nM]	IC50 (osteoclast precursors) [nM]
Cc1nc(-n2nc(-c3ccc(F)cc3)[nH]c2=O)ccc1Oc1ccnc(-c2cnn(C)c2)c1 [Example 28, 3-(4-fluorophenyl)-1-(6-methyl-5-((2-(1-methyl-1H-pyrazol-4-yl)pyridin-4-yl)oxy)pyridin-2-yl)-1H-1,2,4-triazol-5(4H)-one]	10 to 100	10 to 100	≤ 10	> 1000	10 to 100
Cc1nc(-n2nc(C(C)(C)C)[nH]c2=O)ccc1Oc1ccnc(-c2ccc(N3CCN(C)CC3)nc2)c1 [Example 40, 3-(tert-butyl)-1-(6-methyl-5-((6′-(4-methylpiperazin-1-yl)-[2,3′-bipyridin]-4-yl)oxy)pyridin-2-yl)-1H-1,2,4-triazol-5(4H)-one]	100 to 1000	10 to 100	10 to 100	> 1000	10 to 100
COC(C)(C)c1nn(-c2cc(C)c(Oc3ccnc(NC(C)=O)c3)cn2)c(=O)[nH]1 [Example 44, N-(4((6-(3-(2-methoxypropan-2-yl)-5-oxo-4,5-dihydro-1H-1,2,4-triazol-1-yl)-4-methylpyridin-3-yl)oxy)pyridin-2-yl)acetamide]	100 to 1000	100 to 1000	100 to 1000	100 to 1000	100 to 1000
Cc1nc(-n2nc(C(C)(C)C)[nH]c2=O)ccc1Oc1ccnc(-c2cnn(CCO)c2)c1 [Example 18, 3-(tert-butyl)-1-(5-((2-(1-(2-hydroxyethyl)-1H-pyrazol-4-yl)pyridin-4-yl)oxy)-6-methylpyridin-2-yl)-1H-1,2,4-triazol-5(4H)-one]	100 to 1000	100 to 1000	10 to 100	> 1000	100 to 1000
Cc1nc(-n2nc(C(C)(C)C)[nH]c2=O)ccc1Oc1ccnc(NC(=O)C2CC2)c1 [Example 45, N-(4-((6-(3-(tert-butyl)-5-oxo-4,5-dihydro-1H-1,2,4-triazol-1-yl)-2-methylpyridin-3-yl)oxy)pyridin-2-yl)cyclopropanecarboxamide]	> 1000	100 to 1000	100 to 1000	> 1000	10 to 100
Cc1nc(-n2nc(C(C)(C)C)[nH]c2=O)ccc1Oc1ccnc(-c2cn(C)cn2)c1 [Example 23, 3-(tert-butyl)-1-(6-methyl-5-((2-(1-methyl-1H-imidazol-4-yl)pyridin-4-yl)oxy)pyridin-2-yl)-1H-1,2,4-triazol-5(4H)-one]	> 1000	100 to 1000	10 to 100	> 1000	10 to 100
Cc1nc(-n2nc(C(C)(C)C)[nH]c2=O)ccc1Oc1ccnc(NC(=O)C2CCN(C)CC2)c1 [Example 21, N-(4-((6(3-(tert-butyl)-5-oxo-4,5-dihydro-1H-1,2,4-triazol-1-yl)-2-methylpyridin-3-yl)oxy)pyridin-2-yl)-1-methylpiperidine-4-carboxamide]	> 1000	> 1000	100 to 1000	> 1000	100 to 1000
CCc1nc(-n2nc(C(C)(C)C)[nH]c2=O)ccc1Oc1ccnc(-c2cnn(C)c2)c1 [Example 8, 3-(tert-butyl)-1-(6-ethyl-5-((2-(1-methyl-1H-pyrazol-4-yl)pyridin-4-yl)oxy)pyridin-2-yl)-1H-1,2,4-triazol-5(4H)-one]	> 1000	100 to 1000	100 to 1000	> 1000	100 to 1000
Cc1nc(-n2nc(-c3ccc(F)cc3)[nH]c2=O)ccc1Oc1ccnc(NC(=O)C2CC2)c1 [Example 32, N-(4-((6-(3-(4-fluorophenyl)-5-oxo-4,5-dihydro-1H-1,2,4-triazol-1-yl)-2-methylpyridin-3-yl)oxy)pyridin-2-yl)cyclopropanecarboxamide]	10 to 100	100 to 1000	10 to 100	100 to 1000	100 to 1000
Cc1nc(-n2nc(C3CCCC3)[nH]c2=O)ccc1Oc1ccnc(-c2cnn(C)c2)c1 [Example 34, 3-cyclopentyl-1-(6-methyl-5-((2-(1-methyl-1H-pyrazol-4-yl)pyridin-4-yl)oxy)pyridin-2-yl)-1H-1,2,4-triazol-5(4H)-one]	≤ 10	≤ 10	≤ 10	10 to 100	10 to 100
